Legend:
B51 breast tumors = assay: Limiting dilution assay of cancer stem cell frequency, B51 breast tumors; type: in vivo, NOD-SCID mice; settings: B51, paclitaxel
Source text: Limiting dilution assays (LDAs) can be used to assess the effect of a Notch-binding agent on solid tumor cancer stem cells and on the tumorigenicity of a tumor comprising the cancer stem cells. The assays can be sued to determine the frequency of cancer stem cells in tumors from animals treated with the Notch-binding agent or other agent and to compare that frequency to the frequency of cancer stem cells in tumors from control animals.
An LDA was used to assess the effect on the tumorigenicity of the B51 breast tumors that were treated with the combination of control antibody (1B711) plus paclitaxel (Taxol) or treated with the combination of 59R1 and paclitaxel, as described above in Example 7. In addition, the effect of treatment of B51 breast tumors with the control antibody alone or 59R1 alone was also determined by LDA. The doses of antibodies and paclitaxel and the schedule of dosing for the control antibody group and the 59R1 group were the same as described in Example 7, above for the other two treatment groups. After three doses of antibodies and/or paclitaxel, tumors were harvested, processed and dissociated into single cells. The human tumor cells were isolated from the xenograft tumor cells by incubation with biotinylated mouse antibodies (α-mouse CD45-biotin1:200 dilution and rat α-mouse H2 Kd-biotin1:100 dilution, BioLegend, San Diego, Calif.) on ice for 30 min, followed by addition of streptavidin-labeled magnetic beads and removal of the mouse cells with the aid of a magnet. The human cells in the suspension were harvested and counted.
A serial titration of cells (30, 90, 270, and 810 cells) from each of the four treatment groups was injected in a 1:1 (v/v) mixture of FACS buffer and Matrigel into a new set of NOD-SCID mice (n=10/group). Tumors were allowed to grow for 72 days. The percentage of mice with detectable tumors was determined in all groups. The cancer stem cell frequency was then calculated using L-Calc™ software (StemCell Technologies Inc.; downloadable from www.stemcell.com/search/default.asp).

PE13 breast tumors = assay: Microarray analysis of PE13 breast tumors treated with taxol or 59R1 plus taxol; type: in vivo, mice; settings: PE13, Taxol vs. control
Description: In addition to investigating the effects of 59R1 in tumors and the effect on CSC frequency, gene changes were studied following 59R1 treatment in combination with taxol. The experiment was performed in PE13 breast tumors where a decrease in CSC frequency after treatment with 59R1 alone or 59R1 plus taxol treatment had previously been observed (and described herein). Microarray analysis was performed on tumors from the same experiment where limiting dilution analyses of PE13 were carried out for CSC quantification (FIG. 19). Animals bearing PE13 breast tumors were treated three weeks with 59R1 plus taxol, control and taxol prior to harvesting for microarray analysis. Mean differential expression values for taxol vs. control and 59R1 plus taxol vs. taxol treated animals (3 animals per group) were calculated.

CC(=O)O[C@H]1C(=O)[C@@]2(C)[C@H]([C@H](OC(=O)c3ccccc3)[C@]3(O)C[C@H](OC(=O)[C@H](O)[C@@H](NC(=O)c4ccccc4)c4ccccc4)C(C)=C1C3(C)C)[C@]1(OC(C)=O)CO[C@@H]1C[C@@H]2O [Taxol, paclitaxel, reference compound]
increase of frequency of cancer stem cells relative to the control (B51 breast tumors): more than two-fold
Fold BMPR1B (PE13 breast tumors): 10.2
Fold BNIP3 (PE13 breast tumors): −2.1
Fold EGLN3 (PE13 breast tumors): −21.1
Fold HSPB6 (PE13 breast tumors): 13.4
Fold ITGAM (PE13 breast tumors): 2.2
Fold LHX8 (PE13 breast tumors): 4.6
Fold NDRG1 (PE13 breast tumors): −9.0
Fold RARRES1 (PE13 breast tumors): 6.4
Fold RARRES3 (PE13 breast tumors): 2.6
Fold RBP2 (PE13 breast tumors): 4.8
Fold XAF1 (PE13 breast tumors): 10.6

Reference: patent US8226943B2, “Antibodies to notch receptors” (OncoMed Pharmaceuticals, Inc., priority 2008, dated 2012)
